Results on four cell lines are retold here after the supplement of paper PMC10307832.

Holding throughout (experiment): relative viability (nuclei count vs DMSO), 5 days (fraction); higher = more cells survive
Compound in assay [1]: O=C(O)c1ccc2c(c1)nc(Nc1cccc(Cl)c1)c1ccncc12 [Silmitasertib] + CS(=O)(=O)N1CCN(Cc2cc3nc(-c4cccc5[nH]ncc45)nc(N4CCOCC4)c3s2)CC1 [Pictilisib] (partner 1 µM)
The essentials: (§1)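 Lung cancer cell lines were pin-tool dosed in 1536-well plates on the day after seeding, with either a lone drug or a fixed anchor-drug dose plus five library-drug doses (not always all listed) in √10 steps. Nuclei were counted on 4× images after 5 days. Relative viability is the ratio of treated-well to vehicle-well nuclei counts, with each value a median of duplicate plates.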

Compound in assay [2]: O=C(O)c1ccc2c(c1)nc(Nc1cccc(Cl)c1)c1ccncc12 [Silmitasertib] + Cc1cc(Nc2cc(N3CCN(C)CC3)nc(Sc3ccc(NC(=O)C4CC4)cc3)n2)n[nH]1 [Tozasertib] (partner 0.1 µM)
Summed up: as §1

Compound in assay [3]: O=C(O)c1ccc2c(c1)nc(Nc1cccc(Cl)c1)c1ccncc12 [Silmitasertib] + Cc1nc(NC(=O)N2CCC[C@H]2C(N)=O)sc1-c1ccnc(C(C)(C)C(F)(F)F)c1 [Alpelisib] (partner 2 µM)
The essentials: as §1

Compound in assay [4]: O=C(O)c1ccc2c(c1)nc(Nc1cccc(Cl)c1)c1ccncc12 [Silmitasertib] + N=C(N)NC(=N)NCCc1ccccc1 [Phenformin] (partner 250 µM)
Summed up: as §1

Compound in assay [5]: O=C(O)c1ccc2c(c1)nc(Nc1cccc(Cl)c1)c1ccncc12 [Silmitasertib] + O=C(CCCCCCC(=O)Nc1ccccc1)NO [Vorinostat] (partner 1 µM)
Summed up:
as §1

As for SK-LU-1, the relative viability is 0.685 in assay [1] (first compound 0.04 µM); 0.448 in assay [1] (first compound 0.4 µM); 0.359 in assay [1] (first compound 1.265 µM); 0.212 in assay [1] (first compound 4 µM); 0.358 in assay [2] (first compound 0.04 µM); 0.315 in assay [2] (first compound 0.4 µM). Moreover, the relative viability is 0.221 in assay [2] (first compound 1.265 µM); 0.195 in assay [2] (first compound 4 µM); 1.09 in assay [3] (first compound 0.04 µM); 0.836 in assay [3] (first compound 0.4 µM); 0.413 in assay [3] (first compound 1.265 µM); 0.27 in assay [3] (first compound 4 µM). Further, the relative viability in assay [4] (first compound 0.04 µM) stood at 0.527; in assay [4] (first compound 0.4 µM), 0.451; in assay [4] (first compound 1.265 µM) it was 0.426; in assay [4] (first compound 4 µM), 0.262; in assay [5] (first compound 0.04 µM), 0.851; in assay [5] (first compound 0.4 µM), 0.673. The relative viability in assay [5] (first compound 1.265 µM) amounted to 0.587; in assay [5] (first compound 4 µM), 0.35.
SK-MES-1: the relative viability in assay [1] (first compound 0.04 µM) was determined as 0.412; in assay [1] (first compound 0.4 µM) it was 0.439; in assay [1] (first compound 1.265 µM), 0.456; in assay [1] (first compound 4 µM) it was 0.373; in assay [2] (first compound 0.04 µM), 1.07; in assay [2] (first compound 0.4 µM), 1.02. Moreover, the relative viability came out at 0.542 in assay [2] (first compound 1.265 µM); 0.159 in assay [2] (first compound 4 µM); 0.87 in assay [3] (first compound 0.04 µM); 0.896 in assay [3] (first compound 0.4 µM); 0.788 in assay [3] (first compound 1.265 µM); 0.446 in assay [3] (first compound 4 µM). For the same cell line, the relative viability stood at 0.752 in assay [4] (first compound 0.04 µM); 0.582 in assay [4] (first compound 0.4 µM); 0.434 in assay [4] (first compound 1.265 µM); 0.27 in assay [4] (first compound 4 µM); 1.21 in assay [5] (first compound 0.04 µM); 0.876 in assay [5] (first compound 0.4 µM). In addition, the figures for the relative viability in assay [5] (first compound 1.265 µM) and in assay [5] (first compound 4 µM) were 0.8 and 0.297, respectively.
SW 1573: the relative viability in assay [1] (first compound 0.04 µM) turned out to be 0.561; in assay [1] (first compound 0.4 µM), 0.459; in assay [1] (first compound 1.265 µM), 0.462; in assay [1] (first compound 4 µM), 0.484; in assay [2] (first compound 0.04 µM), 0.199; in assay [2] (first compound 0.4 µM), 0.185. Further, the relative viability was determined as 0.231 in assay [2] (first compound 1.265 µM); 0.187 in assay [2] (first compound 4 µM); 0.758 in assay [3] (first compound 0.04 µM); 0.588 in assay [3] (first compound 0.4 µM); 0.723 in assay [3] (first compound 1.265 µM); 0.504 in assay [3] (first compound 4 µM). Besides, the relative viability in assay [4] (first compound 0.04 µM) is 0.465; in assay [4] (first compound 0.4 µM), 0.319; in assay [4] (first compound 1.265 µM), 0.336; in assay [4] (first compound 4 µM), 0.387; in assay [5] (first compound 0.04 µM), 1.17; in assay [5] (first compound 0.4 µM), 0.661. For the same cell line, the relative viability in assay [5] (first compound 1.265 µM) was determined as 0.908; in assay [5] (first compound 4 µM), 0.577.
For UMC-11, the relative viability in assay [1] (first compound 0.04 µM) is 0.992; in assay [1] (first compound 0.4 µM), 0.903; in assay [1] (first compound 1.265 µM), 0.652; in assay [1] (first compound 4 µM), 0.436; in assay [2] (first compound 0.04 µM), 0.199; in assay [2] (first compound 0.4 µM) it was 0.218. Moreover, the relative viability turned out to be 0.184 in assay [2] (first compound 1.265 µM); 0.16 in assay [2] (first compound 4 µM); 1.03 in assay [3] (first compound 0.04 µM); 0.994 in assay [3] (first compound 0.4 µM); 1 in assay [3] (first compound 1.265 µM); 0.627 in assay [3] (first compound 4 µM). The relative viability in assay [4] (first compound 0.04 µM) came to 0.336; in assay [4] (first compound 0.4 µM), 0.319; in assay [4] (first compound 1.265 µM), 0.341; in assay [4] (first compound 4 µM) it was 0.286; in assay [5] (first compound 0.04 µM), 0.388; in assay [5] (first compound 0.4 µM) it was 0.522. For the same cell line, the relative viability in assay [5] (first compound 1.265 µM) is 0.439; in assay [5] (first compound 4 µM) it was 0.333.
